Data: US20240343704A1, “HALO-SUBSTITUTED AMINO PYRIDINE COMPOUNDS AS INHIBITORS OF THE HAEMATOPOIETIC PROGENITOR KINASE 1 (HPK1)” (priority 2021, published 2024)

Columns and labels:
[1] = biological target: T1, Recombinant (1-346) HPK1 (h) (Homo sapiens, UniProt Q92918); experiment: HPK1 Human STE Kinase Enzymatic Radiometric Assay; format: biochemical; details: read-out: HPK1 IC50 nM Range*
T1 construct: Recombinant (1-346) HPK1 (h) is incubated with 8 mM MOPS pH 7.0
T1 sequence (Q92918 1-346): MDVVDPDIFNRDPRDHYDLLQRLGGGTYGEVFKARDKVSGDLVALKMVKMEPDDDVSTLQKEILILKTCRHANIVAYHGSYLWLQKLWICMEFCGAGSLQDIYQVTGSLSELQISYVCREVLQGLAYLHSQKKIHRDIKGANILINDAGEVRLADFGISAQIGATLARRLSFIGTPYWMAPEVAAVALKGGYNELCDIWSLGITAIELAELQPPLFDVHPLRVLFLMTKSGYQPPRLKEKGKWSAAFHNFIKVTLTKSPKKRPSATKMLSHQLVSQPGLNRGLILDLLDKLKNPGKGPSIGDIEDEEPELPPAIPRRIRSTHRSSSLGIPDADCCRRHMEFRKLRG
Method: A stock solution of 10 mM of test compound is prepared in DMSO. The compound plate was prepared by 3-fold and 9-point serial dilutions. […] The reaction is initiated by The addition of the Mg/ATP mix. After incubation for 40 minutes at RT, the reaction is stopped by the addition of phosphoric acid to a concentration of 0.5%.

Lck (h) = Lck (h) (Homo sapiens, UniProt P06239); experiment: Lck Human  Kinase Enzymatic Radiometric Assay; format: biochemical; details: read-out: Lck IC50 nM Range*
Lck (h), sequence (P06239 whole entry): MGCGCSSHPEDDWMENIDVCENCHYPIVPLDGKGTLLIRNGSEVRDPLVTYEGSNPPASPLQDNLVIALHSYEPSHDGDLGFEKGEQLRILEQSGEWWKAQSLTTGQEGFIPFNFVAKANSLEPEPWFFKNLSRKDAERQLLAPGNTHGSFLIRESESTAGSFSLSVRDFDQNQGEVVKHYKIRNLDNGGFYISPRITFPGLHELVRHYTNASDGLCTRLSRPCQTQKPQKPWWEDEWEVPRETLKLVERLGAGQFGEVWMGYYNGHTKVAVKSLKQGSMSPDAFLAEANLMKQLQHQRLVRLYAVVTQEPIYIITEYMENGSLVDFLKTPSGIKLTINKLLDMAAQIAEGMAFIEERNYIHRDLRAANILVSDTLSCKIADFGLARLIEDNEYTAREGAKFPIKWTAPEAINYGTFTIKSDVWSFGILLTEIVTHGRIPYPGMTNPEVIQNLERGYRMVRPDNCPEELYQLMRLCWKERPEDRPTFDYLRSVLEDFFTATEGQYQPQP
Summary of the method: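 Substrate 33P-incorporation measured by scintillation counting after spotting on P30 filtermat and phosphoric acid washes. Human Lck reacted 40 min at RT in 50 mM Tris pH 7.5 with 10 mM MgAcetate, [gamma-33P]-ATP, 250 uM Cdc2 peptide, 0.1 mM EGTA and 0.1 mM Na3VO4.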

Row | SMILES | IC50 [1] | IC50 (Lck (h))
1 | CC(C)[C@@H]1CN(c2ccc(-c3cc(-c4ccc5c(c4)CCNC5=O)c(N)nc3F)cc2)CCN1C [I-48, (R)-6-(2-amino-6-fluoro-5-(4-(3-isopropyl-4-methylpiperazin-1-yl)phenyl)pyridin-3-yl)-3,4-dihydroisoquinolin-1(2H)-one] | 0.1 to 10 nM | > 1000 nM
2 | CC(C)[C@@H]1CN(c2ccc(-c3cc(-c4ccc5c(c4)CCNC5=O)c(N)nc3F)c(F)c2)CCN1C [I-49, (R)-6-(2-amino-6-fluoro-5-(2-fluoro-4-(3-isopropyl-4-methylpiperazin-1-yl)phenyl)pyridin-3-yl)-3,4-dihydroisoquinolin-1(2H)-one] | 0.1 to 10 nM | > 1000 nM
3 | CC(C)[C@H]1CN(c2ccc(-c3cc(-c4ccc5c(c4)CCNC5=O)c(N)nc3F)cc2)CCN1C [I-50, (S)-6-(2-amino-6-fluoro-5-(4-(3-isopropyl-4-methylpiperazin-1-yl)phenyl)pyridin-3-yl)-3,4-dihydroisoquinolin-1(2H)-one] | 0.1 to 10 nM | > 1000 nM
4 | CC(C)[C@H]1CN(c2ccc(-c3cc(-c4ccc5c(c4)CCNC5=O)c(N)nc3F)c(F)c2)CCN1C [I-51, (S)-6-(2-amino-6-fluoro-5-(2-fluoro-4-(3-isopropyl-4-methylpiperazin-1-yl)phenyl)pyridin-3-yl)-3,4-dihydroisoquinolin-1(2H)-one] | 0.1 to 10 nM | > 1000 nM
5 | CCN1CCCC(c2ccc(-c3cc(-c4ccc5c(c4)CCNC5=O)c(N)nc3F)cc2)C1 (stereo not drawn) [I-52, 6-(2-amino-5-(4-(1-ethylpiperidin-3-yl)phenyl)-6-fluoropyridin-3-yl)-3,4-dihydroisoquinolin-1(2H)-one] | 0.1 to 10 nM | > 1000 nM
6 | CCN1CCC(c2ccc(-c3cc(-c4ccc5c(c4)CCNC5=O)c(N)nc3F)cc2)CC1 [I-53, 6-(2-amino-5-(4-(1-ethylpiperidin-4-yl)phenyl)-6-fluoropyridin-3-yl)-3,4-dihydroisoquinolin-1(2H)-one] | 0.1 to 10 nM | > 1000 nM
7 | CS(=O)(=O)N1CCC(Oc2ccc(-c3cc(-c4ccc5c(c4)CCNC5=O)c(N)nc3F)cc2)CC1 [I-54, 6-(2-amino-6-fluoro-5-(4-((1-(methylsulfonyl)piperidin-4-yl)oxy)phenyl)pyridin-3-yl)-3,4-dihydroisoquinolin-1(2H)-one] | 0.1 to 10 nM | > 1000 nM
8 | Nc1nc(F)c(-c2cnn(C3CCOCC3)c2)cc1-c1ccc2c(c1)CCNC2=O [I-55, 6-(2-amino-6-fluoro-5-(1-(tetrahydro-2H-pyran-4-yl)-1H-pyrazol-4-yl)pyridin-3-yl)-3,4-dihydroisoquinolin-1(2H)-one] | 0.1 to 10 nM | > 1000 nM
9 | CC(C)(C)OC(=O)N1CC=C(c2ccc(-c3cc(-c4ccc5c(c4)CCNC5=O)c(N)nc3F)cc2)CC1 [I-56, tert-butyl4-(4-(6-amino-2-fluoro-5-(1-oxo-1,2,3,4-tetrahydroisoquinolin-6-yl)pyridin-3-yl)phenyl)-3,6-dihydropyridine-1(2H)-carboxylate] | 11 to 100 nM | > 1000 nM
10 | Nc1nc(F)c(-c2ccc(C3=CCNCC3)cc2)cc1-c1ccc2c(c1)CCNC2=O [I-57, 6-(2-amino-6-fluoro-5-(4-(1,2,3,6-tetrahydropyridin-4-yl)phenyl)pyridin-3-yl)-3,4-dihydroisoquinolin-1(2H)-one 2,2,2-trifluoroacetate] | 0.1 to 10 nM | > 1000 nM
11 | CN1CCOc2cc(-c3cc(-c4ccc5c(c4)CCNC5=O)c(N)nc3F)ccc21 [I-58, 6-(2-amino-6-fluoro-5-(4-methyl-3,4-dihydro-2H-benzo[b][1,4]oxazin-7-yl)pyridin-3-yl)-3,4-dihydroisoquinolin-1(2H)-one] | 0.1 to 10 nM | > 1000 nM
12 | Nc1nc(F)c(-c2ccc(N3CCCC3)cc2)cc1-c1ccc2c(c1)CCNC2=O [I-59, 6-(2-amino-6-fluoro-5-(4-(pyrrolidin-1-yl)phenyl)pyridin-3-yl)-3,4-dihydroisoquinolin-1(2H)-one] | 11 to 100 nM | > 1000 nM
13 | CN1CCN(c2ccc(-c3cc(-c4ccc5c(c4)CCNC5=O)c(N)nc3F)c(Cl)c2)CC1 [I-61, 6-(2-amino-5-(2-chloro-4-(4-methylpiperazin-1-yl)phenyl)-6-fluoropyridin-3-yl)-3,4-dihydroisoquinolin-1(2H)-one] | 0.1 to 10 nM | > 1000 nM
14 | CS(=O)(=O)c1ccc(-c2cc(-c3ccc4c(c3)CCNC4=O)c(N)nc2F)cc1 [I-62, 6-(2-amino-6-fluoro-5-(4-(methylsulfonyl)phenyl)pyridin-3-yl)-3,4-dihydroisoquinolin-1(2H)-one] | 0.1 to 10 nM | > 1000 nM
15 | Nc1nc(F)c(-c2ccc(S(=O)(=O)C3CC3)cc2)cc1-c1ccc2c(c1)CCNC2=O [I-63, 6-(2-amino-5-(4-(cyclopropylsulfonyl)phenyl)-6-fluoropyridin-3-yl)-3,4-dihydroisoquinolin-1(2H)-one] | 0.1 to 10 nM | > 1000 nM
16 | CN(C)S(=O)(=O)c1ccc(-c2cc(-c3ccc4c(c3)CCNC4=O)c(N)nc2F)cc1 [I-64, 4-(6-amino-2-fluoro-5-(1-oxo-1,2,3,4-tetrahydroisoquinolin-6-yl)pyridin-3-yl)-N,N-dimethylbenzenesulfonamide] | 0.1 to 10 nM | > 1000 nM
17 | CCN(CC)S(=O)(=O)c1ccc(-c2cc(-c3ccc4c(c3)CCNC4=O)c(N)nc2F)cc1 [I-65, 4-(6-amino-2-fluoro-5-(1-oxo-1,2,3,4-tetrahydroisoquinolin-6-yl)pyridin-3-yl)-N,N-diethylbenzenesulfonamide] | 11 to 100 nM | > 1000 nM
18 | Nc1nc(F)c(-c2ccc([C@@]34C[C@@H]3CN(C3CCOCC3)C4)cc2)cc1-c1ccc2c(c1)CCNC2=O [I-66, 6-(2-amino-6-fluoro-5-(4-((1R,5S)-3-(tetrahydro-2H-pyran-4-yl)-3-azabicyclo[3.1.0]hexan-1-yl)phenyl)pyridin-3-yl)-3,4-dihydroisoquinolin-1(2H)-one] | 0.1 to 10 nM | > 1000 nM
19 | CCN1CCN(c2ccc(-c3cc(-c4ccc5c(c4)CCCNC5=O)c(N)nc3F)cc2)CC1 [I-67, 7-(2-amino-5-(4-(4-ethylpiperazin-1-yl)phenyl)-6-fluoropyridin-3-yl)-2,3,4,5-tetrahydro-1H-benzo[c]azepin-1-one] | 11 to 100 nM | > 1000 nM
20 | CN1CCN(c2ccc(-c3cc(-c4ccc5c(c4)CCNC5=O)c(N)nc3F)cc2C(F)(F)F)CC1 [I-68, 6-(2-amino-6-fluoro-5-(4-(4-methylpiperazin-1-yl)-3-(trifluoromethyl)phenyl)pyridin-3-yl)-3,4-dihydroisoquinolin-1(2H)-one] | 0.1 to 10 nM | > 1000 nM
21 | CCN1CCN(c2ccc(-c3cc(-c4ccc5c(c4)C(C)(C)CNC5=O)c(N)nc3F)cc2)CC1 [I-69, 6-(2-amino-5-(4-(4-ethylpiperazin-1-yl)phenyl)-6-fluoropyridin-3-yl)-4,4-dimethyl-3,4-dihydroisoquinolin-1(2H)-one] | 0.1 to 10 nM | 101 to 1000 nM
22 | CCN1CCN(c2ccc(-c3cc(-c4ccc5c(c4)CC(C)(C)NC5=O)c(N)nc3F)cc2)CC1 [I-70, 6-(2-amino-5-(4-(4-ethylpiperazin-1-yl)phenyl)-6-fluoropyridin-3-yl)-3,3-dimethyl-3,4-dihydroisoquinolin-1(2H)-one 2,2,2-trifluoroacetate] | 11 to 100 nM | > 1000 nM
23 | CCN1C[C@H]2C[C@@]2(c2ccc(-c3cc(-c4ccc5c(c4)CCNC5=O)c(N)nc3F)cc2)C1 [I-71, 6-(2-amino-5-(4-((1R,5S)-3-ethyl-3-azabicyclo[3.1.0]hexan-1-yl)phenyl)-6-fluoropyridin-3-yl)-3,4-dihydroisoquinolin-1(2H)-one] | 0.1 to 10 nM | > 1000 nM
24 | Nc1nc(F)c(-c2ccc([C@@]34C[C@@H]3CN(CC(F)F)C4)cc2)cc1-c1ccc2c(c1)CCNC2=O [I-72, 6-(2-amino-5-(4-((1R,5S)-3-(2,2-difluoroethyl)-3-azabicyclo[3.1.0]hexan-1-yl)phenyl)-6-fluoropyridin-3-yl)-3,4-dihydroisoquinolin-1(2H)-one] | 11 to 100 nM | > 1000 nM
25 | Nc1nc(F)c(-c2ccc(C3=CCN(CC(F)F)CC3)cc2)cc1-c1ccc2c(c1)CCNC2=O [I-73, 6-(2-amino-5-(4-(1-(2,2-difluoroethyl)-1,2,3,6-tetrahydropyridin-4-yl)phenyl)-6-fluoropyridin-3-yl)-3,4-dihydroisoquinolin-1(2H)-one] | 0.1 to 10 nM | > 1000 nM
26 | CN1CCN(c2ccc(-c3cc(-c4ccc5c(c4)CCNC5=O)c(N)nc3Cl)cc2)CC1 [I-74, 6-(2-amino-6-chloro-5-(4-(4-methylpiperazin-1-yl)phenyl)pyridin-3-yl)-3,4-dihydroisoquinolin-1(2H)-one] | 11 to 100 nM | > 1000 nM
27 | CCN1CCN(c2ccc(-c3cc(-c4ccc5c(c4)CCNC5=O)c(N)nc3Cl)cc2)CC1 [I-75, 6-(2-amino-6-chloro-5-(4-(4-ethylpiperazin-1-yl)phenyl)pyridin-3-yl)-3,4-dihydroisoquinolin-1(2H)-one] | 11 to 100 nM | > 1000 nM
